The values that follow come from publication PMC11968819 (Scientific Reports, 2025).

For series [1], the system named is human duodenal organoid-derived monolayer model.
The conditions of series [2]: human, four-donor-derived monolayer models (Supplementary Fig. 8a).
Series [3] concerns UDP-glucuronosyltransferase (UGT). Briefly: Raloxifene permeability and metabolizing assay. The series is classed as in vitro ADME, human. Conditions: 5 μM raloxifene.
In series [4] the target is T1, Carboxylesterase 2 (CES2) (Homo sapiens, UniProt O00748).
T1 sequence (O00748 27-559): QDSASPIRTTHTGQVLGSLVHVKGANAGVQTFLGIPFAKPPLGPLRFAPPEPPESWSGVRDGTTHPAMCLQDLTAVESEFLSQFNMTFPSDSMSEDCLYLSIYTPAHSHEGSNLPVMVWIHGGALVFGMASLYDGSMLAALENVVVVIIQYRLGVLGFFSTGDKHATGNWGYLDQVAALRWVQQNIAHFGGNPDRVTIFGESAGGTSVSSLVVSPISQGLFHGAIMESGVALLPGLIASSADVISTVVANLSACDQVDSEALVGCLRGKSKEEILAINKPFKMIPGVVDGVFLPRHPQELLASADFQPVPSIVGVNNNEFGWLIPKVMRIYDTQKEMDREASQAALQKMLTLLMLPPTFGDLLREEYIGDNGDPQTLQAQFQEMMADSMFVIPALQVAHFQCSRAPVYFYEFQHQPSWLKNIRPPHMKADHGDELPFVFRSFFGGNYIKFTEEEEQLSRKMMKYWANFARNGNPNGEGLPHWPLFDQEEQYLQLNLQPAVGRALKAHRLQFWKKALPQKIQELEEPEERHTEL
Put plainly: Irinotecan metabolizing assay. The series is classed as in vitro ADME. Conditions: 10 μM irinotecan, 20 μM loperamide, 3 h.

A further series concerns the target P-gp (Homo sapiens, UniProt P08183). Briefly: Efflux drug transporter assay with digoxin. Conditions: 10 μM digoxin, 10 μM inhibitor.
Series [5] relates to human duodenal organoid-derived monolayer model. Briefly: FaSSIF tolerability assay with lucifer yellow. The class given is in vitro ADME. Conditions: FaSSIF pH 6.5 apical, 2 h; within individual experiments and inter-experiments.

As usually defined, the Papp is a coefficient for how fast a substance crosses the barrier.

Chain of P-gp (P08183 whole entry): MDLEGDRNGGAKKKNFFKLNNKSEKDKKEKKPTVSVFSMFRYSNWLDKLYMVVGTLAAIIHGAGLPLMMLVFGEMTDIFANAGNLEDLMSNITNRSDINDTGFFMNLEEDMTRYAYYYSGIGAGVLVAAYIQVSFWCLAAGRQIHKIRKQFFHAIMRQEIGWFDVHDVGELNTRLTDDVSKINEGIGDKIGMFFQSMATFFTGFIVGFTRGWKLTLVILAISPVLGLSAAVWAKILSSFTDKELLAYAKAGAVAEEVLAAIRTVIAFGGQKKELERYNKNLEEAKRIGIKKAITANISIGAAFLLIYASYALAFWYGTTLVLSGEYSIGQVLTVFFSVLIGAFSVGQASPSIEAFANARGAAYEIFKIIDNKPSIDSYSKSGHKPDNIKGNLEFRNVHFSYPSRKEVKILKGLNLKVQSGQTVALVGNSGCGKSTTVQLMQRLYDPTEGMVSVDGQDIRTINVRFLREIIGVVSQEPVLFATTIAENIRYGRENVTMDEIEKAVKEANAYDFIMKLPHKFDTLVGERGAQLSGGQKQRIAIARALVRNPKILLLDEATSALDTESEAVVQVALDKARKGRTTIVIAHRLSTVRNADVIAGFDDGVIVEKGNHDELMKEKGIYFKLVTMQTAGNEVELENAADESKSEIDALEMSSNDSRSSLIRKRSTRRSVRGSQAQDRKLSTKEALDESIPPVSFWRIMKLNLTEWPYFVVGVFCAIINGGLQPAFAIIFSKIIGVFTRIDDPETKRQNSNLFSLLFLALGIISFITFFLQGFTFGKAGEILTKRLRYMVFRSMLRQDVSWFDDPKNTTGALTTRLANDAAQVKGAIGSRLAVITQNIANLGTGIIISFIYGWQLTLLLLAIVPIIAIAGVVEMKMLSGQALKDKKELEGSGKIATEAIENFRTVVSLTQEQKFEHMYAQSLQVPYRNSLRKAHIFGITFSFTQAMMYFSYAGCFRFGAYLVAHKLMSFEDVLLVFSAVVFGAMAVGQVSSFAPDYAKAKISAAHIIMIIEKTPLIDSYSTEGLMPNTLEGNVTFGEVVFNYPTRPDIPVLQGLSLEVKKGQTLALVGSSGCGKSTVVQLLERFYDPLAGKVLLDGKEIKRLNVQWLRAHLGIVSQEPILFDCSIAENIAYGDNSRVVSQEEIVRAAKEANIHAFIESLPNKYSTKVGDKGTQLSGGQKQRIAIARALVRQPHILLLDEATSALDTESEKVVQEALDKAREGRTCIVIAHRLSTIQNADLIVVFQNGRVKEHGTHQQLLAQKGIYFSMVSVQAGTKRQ

Take `Nn1nnc2ccccc21` [ABT, 1-aminobenzotriazole]: in series [1], the “Effect on amount of midazolam metabolites” value is on record as “significantly decreased” and the “Effect on midazolam permeability” value was “significantly enhanced”.

As to `Cc1cc(=O)n(-c2ccccc2)n1C` [Antipyrine], in series [2], the Papp at 10 μM was greater than 1 ×10⁻⁶ cm/s.

`NC(=O)N1c2ccccc2C=Cc2ccccc21` [Carbamazepine] displayed a Papp at 10 μM in series [2] greater than 1 ×10⁻⁶ cm/s.

`CCC1=C(C)CN(C(=O)NCCc2ccc(S(=O)(=O)NC(=O)N[C@H]3CC[C@H](C)CC3)cc2)C1=O` [Glimepiride] returned a Papp at 10 μM in series [2] greater than 1 ×10⁻⁶ cm/s.

The molecule `CC(C(=O)O)c1cccc(C(=O)c2ccccc2)c1` (stereo not drawn) [Ketoprofen] displayed an apparent permeability (Papp) at 10 μM in series [2] greater than 1 ×10⁻⁶ cm/s.

In series [2], `COCCc1ccc(OCC(O)CNC(C)C)cc1` (stereo not drawn) [Metoprolol] had a Papp at 10 μM greater than 1 ×10⁻⁶ cm/s.

The molecule `Cc1onc(-c2ccccc2)c1C(=O)N[C@@H]1C(=O)N2[C@@H]1SC(C)(C)[C@@H]2C(=O)O` [Oxacillin] yielded a Papp at 10 μM in series [2] of less than 1 ×10⁻⁶ cm/s.

In the case of `O=C(O)C[C@H](O)C[C@H](O)/C=C/c1c(C2CC2)nc2ccccc2c1-c1ccc(F)cc1` [Pitavastatin], the apparent permeability coefficient (Papp) at 10 μM in series [2] was greater than 1 ×10⁻⁶ cm/s.

`CC(C)NCC(O)COc1cccc2ccccc12` (stereo not drawn) [Propranolol] returned a Papp at 10 μM in series [2] greater than 1 ×10⁻⁶ cm/s.

In the case of `O=C(c1ccc(OCCN2CCCCC2)cc1)c1c(-c2ccc(O)cc2)sc2cc(O)ccc12` [Raloxifene], the “Metabolism by UGT” value in series [3] is “mostly found to be metabolized to glucuronide”.

In series [2], `CN(CCOc1ccc(CC2SC(=O)NC2=O)cc1)c1ccccn1` (stereo not drawn) [Rosiglitazone] showed a Papp at 10 μM greater than 1 ×10⁻⁶ cm/s.

With `CN(C)C(=O)C(CCN1CCC(O)(c2ccc(Cl)cc2)CC1)(c1ccccc1)c1ccccc1` [loperamide], the “Effect on generation of SN-38 from irinotecan” value in series [4] is listed as “significantly inhibited”.

As to `O[C@@H](COc1cccc2ncccc12)CN1CCN([C@@H]2c3ccccc3[C@@H]3[C@H](c4ccccc42)C3(F)F)CC1` [zosquidar, zosuquidar], the “Effect on transport of P-gp substrate digoxin” value on P-gp is given as “canceled”.

Turning to lucifer yellow, in series [5], the “Papp of lucifer yellow” value is recorded as “below 1.0 × 10^–6 cm/s”.
